Assay results taken from patent US7868026B2, “Therapeutic compounds” (Pfizer Inc., priority 2005, dated 2011).
Like-named read-outs stand apart in the source and are kept apart here.

Legend:
Assay type in all cases: biochemical
CYP3A4 [1] = molecular target: T1, CYP3A4 (Homo sapiens, UniProt P08684); assay: Determination of IC50 against CYP3A4 by measurement of inhibition of testosterone metabolism (human liver microsomes, 6-β-OH-testosterone by LC-MS/MS); set-up: 0.1 mg/mL human liver microsomes; details: read-out: IC50 (Testo.)
T1 sequence (P08684 whole entry): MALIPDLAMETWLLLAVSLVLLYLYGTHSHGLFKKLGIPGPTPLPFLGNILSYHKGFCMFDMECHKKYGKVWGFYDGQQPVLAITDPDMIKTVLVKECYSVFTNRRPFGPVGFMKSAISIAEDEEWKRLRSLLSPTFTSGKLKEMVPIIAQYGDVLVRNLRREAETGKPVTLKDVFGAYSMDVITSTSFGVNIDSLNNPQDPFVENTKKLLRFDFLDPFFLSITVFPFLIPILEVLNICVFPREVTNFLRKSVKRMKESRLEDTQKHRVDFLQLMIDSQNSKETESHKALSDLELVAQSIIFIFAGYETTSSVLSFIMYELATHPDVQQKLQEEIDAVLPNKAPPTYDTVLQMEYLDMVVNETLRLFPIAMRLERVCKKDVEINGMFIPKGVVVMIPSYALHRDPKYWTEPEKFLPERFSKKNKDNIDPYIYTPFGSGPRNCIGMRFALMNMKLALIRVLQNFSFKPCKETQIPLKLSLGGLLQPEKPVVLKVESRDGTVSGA
In short: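 6-β-OH-testosterone formation was read by LC-MS/MS (MRM, internal standard, standard curve) after eight minutes. Reaction contained testosterone 25 μM, NADPH 1 mM and microsomal protein 0.1 mg/mL in pH 7.4 potassium phosphate (100 mM).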

CYP3A4 [2] = molecular target: T1, CYP3A4; assay: Determination of IC50 against CYP3A4 by measurement of inhibition of midazolam metabolism (human liver microsomes, 1-hydroxymidazolam by LC-MS/MS); set-up: 0.1 mg/mL human liver microsomes; details: 2 μM midazolam, 0.1 mg/mL human liver microsomes
In short: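 Human liver microsomes (0.1 mg/mL) incubated 8 min with 2 μM midazolam and 1 mM NADPH in 100 mM potassium phosphate, pH 7.4. 1-Hydroxymidazolam quantified by LC-MS/MS (MRM) as peak area ratio to internal standard against a metabolite standard curve.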

CYP3A4 [3] = molecular target: T1, CYP3A4; assay: Determination of compound Kiapp against recombinant CYP3A4 enzyme (BFC fluorescent substrate)
In short: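 Kiapp derived from initial velocities over the first 5 min of BFC (5 uM) oxidation, using Morrison's tight-binding equation for non-partial and Szedlacsek's for partial inhibitors. Inhibitor first pre-incubated ≥30 min with CYP3A4 (5.5 or 8 nM, ±b5) in pH 7.0 phosphate/TCEP/2% DMF at room temperature; 200 uM NADPH initiated.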

[4] = Baculo. enzyme preparation, read-out: Kiapp (BFC, Baculo.)
[5] = Super. enzyme preparation, read-out: Kiapp (BFC, Super.)

Compound	IC50 (CYP3A4 [1]) [nM]	IC50 (CYP3A4 [2]) [nM]	Ki (CYP3A4 [3]; [4]) [nM]	Ki (CYP3A4 [3]; [5]) [nM]
COc1cncc(NS(=O)(=O)c2ccccc2C(=O)NCCc2ccccc2C)c1 [Example 388, 2-{[(5-methoxypyridin-3-yl)amino]sulfonyl}-N-[2-(2-methylphenyl)ethyl]benzamide]	3	9	16	< 1
CCCN(CC1CC1)C(=O)c1ccccc1S(=O)(=O)Nc1cncc(OC)c1 [Example 390, N-(cyclopropylmethyl)-2-{[(5-methoxypyridin-3-yl)amino]sulfonyl}-N-propylbenzamide]	70	18	84.9	1.78
O=C(c1ccccc1S(=O)(=O)Nc1cncc(Br)c1)N1CCCCC1 [Example 392, N-(5-bromopyridin-3-yl)-2-(piperidin-1-ylcarbonyl)benzenesulfonamide]	9	65	> 1000	320

Other lines, results leading:

IC50 (CYP3A4 [1]) [nM]	IC50 (CYP3A4 [2]) [nM]	Ki (CYP3A4 [3]; [4]) [nM]	Ki (CYP3A4 [3]; [5]) [nM]	Compound
57	24	241	2.81	COc1cncc(NS(=O)(=O)c2ccccc2C(=O)N2CCC(C)CC2)c1 [Example 389, N-(5-methoxypyridin-3-yl)-2-[(4-methylpiperidin-1-yl)carbonyl]benzenesulfonamide]
63	27	317	6.26	COc1cncc(NS(=O)(=O)c2ccccc2C(=O)N2CCCC(C)(C)C2)c1 [Example 391, 2-[(3,3-dimethylpiperidin-1-yl)carbonyl]-N-(5-methoxypyridin-3-yl)benzenesulfonamide]
